No end group written: not given here. *: point of attachment. For = O=C*

Series [1] in a line: Hydrodynamic diameter by dynamic light scattering. It counts as physicochemical. To be noted: 0.2 mg/ml in PBS, room temperature, filtered 0.2 μm, average of three independent measurements; suggests elongated shape or dimers. The protocol: The hydrodynamic diameter of the BacSp222 molecule was determined at room temperature by the dynamic light scattering (DLS) technique using a Zetasizer Nano ZS apparatus (Malvern Instruments); a 0.2 mg/ml solution of the peptide in phosphate buffered saline (PBS) was used for analysis. Prior to measurements, the solution was filtered through a 0.2 μm bioinert membrane (Sigma). The obtained spectra were averaged over three independent measurements. The size of BacSp222 was also evaluated by gel filtration chromatography using a Superdex Peptide 10/300 GL column (GH Healthcare) operated in PBS with a 0.3 ml/min flow rate.

The next series has as its system S. aureus. Nature of the series: Bactericidal test, plating on TSA after incubation. It counts as cell-based, Staphylococcus aureus. The following applies: 1 × 10^4 CFU incubated with 1 μM bacteriocin for 30 minutes (data not shown).
Series [2] is described as follows: Conformational stability by CD, ellipticity at 220 nm against temperature. The following applies: 125 μg/ml in PBS, 20–90 °C at 1 °C/min. Format: physicochemical. The protocol:
The circular dichroism (CD) spectra of BacSp222 (125 μg/ml in PBS) were recorded using a J-715 spectropolarimeter (Jasco). The spectra were recorded at room temperature in the range 190–240 nm and were averaged over three independent passes. The amount of secondary structures was estimated by fitting the measured spectra to the reference spectra of natural native proteins (Prot, Jasco) or synthetic polypeptides (Yang, Jasco). To evaluate the conformational stability of the BacSp222 molecule at different temperatures, the ellipticity of the polarized light was recorded at 220 nm over the temperature range 20–90 °C at 1 °C/min increments.

For series [3], the system named is Staphylococcus aureus ATCC 25923. Briefly: MIC, microdilution assay. Format: cell-based. The following applies: broth microdilution (CLSI), MHB, overnight 37 °C, OD 600 nm; mean of three independent measurements. The protocol: (§1) The microbicidal activity of BacSp222 was determined using the microdilution method in compliance with Clinical and Laboratory Standards Institute (CLSI, for bacteria) guidelines M7-A7[57] and in compliance with the European Committee on Antimicrobial Susceptibility Testing - Subcommittee on Antifungal Susceptibility Testing (EUCAST-AFST, for fungi)[58]. Briefly, the microorganisms were cultivated in dedicated liquid media to reach the early exponential phase or, in the case of Streptococcus spp., grown overnight on agar MHB supplemented with 2.5% (v/v) lysed horse blood (LHB). Subsequently, the microorganisms were diluted to 1 × 10^6 CFU/ml (estimated using an Eddy Jet 2 automatic spiral plater, IUL) in MHB; in MHB supplemented with 5% (v/v) LHB (for streptococci); or, in the case of Candida albicans, in RPMI-1640 medium (Thermo) without L-Glu and phenol red, supplemented with 0.6 g/l L-Glu, 34.53 g/l 3-(N-morpholino)propanesulphonic acid and 18 g/l glucose, pH 7.0. Fifty microliters of microorganism suspension were mixed with an equal volume of appropriate medium containing serial 2- or 1.5-fold dilutions of BacSp222. After the cultures were incubated overnight at 37 °C, the optical density (OD) at 600 nm was measured. The minimal inhibitory concentration (MIC), calculated as a mean value from three independent measurements, was defined as the minimum peptide concentration for which an increase in OD was not observed compared to uninoculated broth.
In general terms: In broth dilution the organism is exposed to a series of concentrations in liquid medium.

Series [4] has as its system Streptococcus sanguinis PCM 2335. Briefly: MIC, microdilution assay. Format: cell-based. The following applies: broth microdilution (CLSI), MHB with 5% lysed horse blood, overnight 37 °C, OD 600 nm; mean of three independent measurements. The protocol: as §1
In series [5] the test system is Lactococcus lactis subsp. lactis ŁOCK 0871 strain 239. Briefly: MIC, microdilution assay. The following applies: broth microdilution (CLSI), MHB, overnight 37 °C, OD 600 nm; mean of three independent measurements. It counts as cell-based. As for the experimental part:
as §1

Series [6] deals with Staphylococcus intermedius R-2725. Nature of the series: MIC, microdilution assay. It counts as cell-based. To be noted: broth microdilution (CLSI), MHB, overnight 37 °C, OD 600 nm; mean of three independent measurements. As for the experimental part: as §1
Series [7] concerns Klebsiella pneumoniae ATCC 13886. Briefly: MIC, microdilution assay. Format: cell-based. The following applies: broth microdilution (CLSI), MHB, overnight 37 °C, OD 600 nm; highest concentration tested 100 μM. The protocol:
as §1

The test system of series [8] is Bacillus subtilis ATCC 6633. Nature of the series: MIC, microdilution assay. To be noted: broth microdilution (CLSI), MHB, overnight 37 °C, OD 600 nm; mean of three independent measurements. Format: cell-based. The protocol: as §1
Series [9] concerns Micrococcus luteus ATCC 4698. Nature of the series: MIC, microdilution assay. It counts as cell-based. The following applies: broth microdilution (CLSI), MHB, overnight 37 °C, OD 600 nm; mean of three independent measurements. As for the experimental part: as §1
In series [10] the test system is Staphylococcus intermedius ATCC 29663. Nature of the series: MIC, microdilution assay. To be noted: broth microdilution (CLSI), MHB, overnight 37 °C, OD 600 nm; mean of three independent measurements. It counts as cell-based. As for the experimental part:
as §1

The subject of series [11] is Staphylococcus epidermidis ATCC 35547. Nature of the series: MIC, microdilution assay. Format: cell-based. The following applies: broth microdilution (CLSI), MHB, overnight 37 °C, OD 600 nm; mean of three independent measurements. As for the experimental part: as §1
In series [12] the test system is Staphylococcus saprophyticus ATCC 15305. Nature of the series: MIC, microdilution assay. It counts as cell-based. The following applies: broth microdilution (CLSI), MHB, overnight 37 °C, OD 600 nm; mean of three independent measurements. The protocol:
as §1

Series [13] concerns Staphylococcus aureus MRSA USA300 strain FPR3757. Briefly: MIC, microdilution assay. Format: cell-based. To be noted: broth microdilution (CLSI), MHB, overnight 37 °C, OD 600 nm; mean of three independent measurements. The protocol:
as §1

In series [14] the test system is Staphylococcus aureus KB/8658. Briefly: MIC, microdilution assay. It counts as cell-based. To be noted: broth microdilution (CLSI), MHB, overnight 37 °C, OD 600 nm; mean of three independent measurements. As for the experimental part: as §1
The subject of series [15] is Serratia marcescens ATCC 274. Briefly: MIC, microdilution assay. It counts as cell-based. The following applies: broth microdilution (CLSI), MHB, overnight 37 °C, OD 600 nm; highest concentration tested 100 μM. The protocol: as §1
For series [16], the system named is Staphylococcus aureus DSM 26258 (CH91). Briefly: MIC, microdilution assay. The following applies: broth microdilution (CLSI), MHB, overnight 37 °C, OD 600 nm; mean of three independent measurements. Format: cell-based. The protocol:
as §1

Series [17] deals with Staphylococcus pseudintermedius 222. Briefly: MIC, microdilution assay. It counts as cell-based. The following applies: bacteriocin-producing strain; broth microdilution (CLSI), MHB, overnight 37 °C, OD 600 nm; mean of three independent measurements. The protocol:
as §1

Series [18] concerns Staphylococcus pseudintermedius LMG 22219. Briefly: MIC, microdilution assay. It counts as cell-based. To be noted: nonproducer strain; broth microdilution (CLSI), MHB, overnight 37 °C, OD 600 nm; mean of three independent measurements. As for the experimental part: as §1
Series [19] has as its system Streptococcus pyogenes PCM 465. Briefly: MIC, microdilution assay. To be noted: broth microdilution (CLSI), MHB with 5% lysed horse blood, overnight 37 °C, OD 600 nm; mean of three independent measurements. Format: cell-based. As for the experimental part:
as §1

The next series deals with Escherichia coli K12. Nature of the series: MIC, microdilution assay. The following applies: broth microdilution (CLSI), MHB, overnight 37 °C, OD 600 nm; highest concentration tested 100 μM. Format: cell-based. As for the experimental part:
as §1

On to “For-MAGLLRFLLSKGRALYNWAKSHVGKVWEWLKSGATYEQIKEWIENALGWR [BacSp222]”, for which, in series [1], the “hydrodynamic diameter estimated by DLS” value was 3.68 nm. For the same substance, the “colonies after plating on TSA” value in the series on S. aureus is recorded as “complete absence of the colonies”. The “ellipticity at 220 nm at elevated temperatures” value in series [2] is “lack of changes in ellipticity at 220 nm, up to 90 °C”. Further, the “MIC ± SD” value in series [3] is 1.00 ± 0.36 µM; in series [4] it was 3.50 ± 0.85 µM; in series [5] it was 0.89 ± 0.00 µM; in series [6], 1.20 ± 0.24 µM; in series [7] it was over 100 µM; in [8] it was 0.16 ± 0.00 µM. In addition, the “MIC ± SD” value turned out to be 0.11 µM in [9]; 2.00 ± 0.00 µM in series [10]; 4.40 ± 0.00 µM in series [11]; 0.93 ± 0.36 µM in [12]; 0.89 ± 0.00 µM in series [13]; 1.30 ± 0.00 µM in series [14]. The “MIC ± SD” value in series [15] is over 100 µM; in [16], 0.92 ± 0.23 µM; in series [17] it was 2.1 µM; in series [18] it was 0.16 µM; in series [19], 7.8 µM; against Escherichia coli K12, over 100 µM.
